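48-hour exposure; five concentrations; linearly interpolated endpoints. Here, GI50 denotes the concentration required for 50% inhibition of growth. The concentration for full growth arrest is given as TGI.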

What all share (assay): NCI tumour cell line growth inhibition, 48 h
Test [1] concerns HCT-15 colon.
For test [2], the system named is SW-620 colon.
Test [3] deals with MALME-3M melanoma.
Test [4] relates to HCC-2998 colon.
Test [5] relates to SF-539 CNS.
The subject of test [6] is CAKI-1 renal.
Test [7] concerns K-562 leukemia.
In test [8] the test system is CCRF-CEM leukemia.
Test [9] concerns NCI-H460 lung.
The subject of test [10] is MDA-N.

Take `O=[Se](=O)c1ccccc1.O=[Se](=O)c1ccccc1.[Cu]`: the GI50 in test [1] was 16.4 µM; in test [2], 17.5 µM; in [3] it was 16.8 µM; in [4] it was 16.6 µM; in test [5] it was 16.4 µM; in test [6] it was 22.8 µM. Further, the GI50 in test [7] is 13.4 µM; in test [8], 7.98 µM; in test [9], 8 µM. Moreover, the TGI in test [1] amounted to 34.1 µM; in test [2] it was 33.8 µM; in test [3], 31.7 µM; in test [4] it was 32.9 µM; in [5], 30.6 µM; in [6], 38.9 µM. The results for the TGI in [7], in test [8] and in test [9] were 47.4 µM, 62.7 µM and 20 µM, respectively.
For the molecule `CC(CO)C1C[C@H](O)[C@@]2(C)CC(=O)C=C(CO)[C@@H]2C1` (some centres undefined), the TGI in test [1], in test [2], in [4], in [5], in test [6] and in test [10] was > 100 µM each time. Further, in test [9], the TGI is > 100 µM.
Regarding `CC(=O)O[C@]12CCCC1C1(O)C(O)CCCC12` (some centres undefined), the TGI in test [1], in [2], in test [3], in test [7], in test [8] and in test [9] was > 100 µM in each case.
With `COP(=O)(OC)C(Cc1c[nH]c2ccccc12)NC(=O)OCc1ccccc1` (centres undefined), the TGI in [1], in test [2], in test [4], in [6], in [10] and in [7] was > 100 µM in each case. Moreover, the TGI is 29.2 µM in test [8] and > 100 µM in test [9].
With `O=C(N/N=C/c1cc(Cl)cc(Cl)c1[O-])c1ccccc1O.O=C(N/N=C/c1cc(Cl)cc(Cl)c1[O-])c1ccccc1O.[Ni+2]`, the TGI in test [1] is 1.92 µM; in [2], 1.97 µM; in test [3] it was 2.36 µM; in test [4], 1.56 µM; in test [5], 1.16 µM; in [6], 1.41 µM. The TGI in test [7] was determined as 17.4 µM; in test [9] it was 1.73 µM. The GI50 in test [3] was 0.759 µM; in test [5], 0.297 µM.
On to `C/C(=N\NC(N)=S)C(CN(CC(C)C)CC(C)C)C(=O)Nc1ccc(C)cc1C` (centres undefined), for which the TGI in test [1], in [2], in [3], in test [4], in [5] and in test [6] was > 100 µM each time. For the same molecule, the TGI in [7], in test [8] and in test [9] was > 100 µM each time.
`Cc1cc(S(=O)(=O)O)c(NC(=O)C(=O)C2C=CCS2(=O)=O)cc1Cl` (centres undefined): the TGI in test [1], in test [2], in [3], in [4], in test [5] and in [6] was > 100 µM each time. Also, the TGI in [7], in test [8] and in [9] was > 100 µM throughout.
For the molecule `C=CCNC(=O)NC1=CSC2=NC(=O)C3(NN12)c1ccccc1-c1ccccc13`, the TGI in test [1], in test [2], in [3], in test [4], in [5] and in [6] was > 10 µM throughout. The TGI in [7], in test [8] and in [9] was > 10 µM in each case.
Take `N#C[S-].[Nd+3].c1ccc(-c2ccccn2)nc1.c1ccc(-c2ccccn2)nc1.c1ccc(-c2ccccn2)nc1`: the GI50 in test [1] is 3.82 µM; in [2], 5.93 µM; in test [3] it was 18.5 µM; in [4] it was 7.87 µM; in [5], 3.78 µM; in test [6], 5.9 µM. In addition, the GI50 in test [9] is 4.25 µM. Besides, the TGI in test [1] is > 100 µM; in [2] it was > 100 µM; in test [3], 68.4 µM; in test [4], > 100 µM; in [5] it was > 100 µM; in [6], > 100 µM. In test [9], this molecule showed a TGI of 37.3 µM.
As for `O=C1c2c(n(Cc3ccccc3)c(=O)n2Cc2ccccc2)C(=O)N1Cc1ccccc1`, the TGI in [1], in test [2], in [3], in test [4], in test [5] and in [6] was > 100 µM in each case. For the same molecule, the TGI in test [7], in [8] and in test [9] was > 100 µM throughout.
In the case of `CCOC(=O)C(=Cc1ccc(C(=O)OC)cc1)C(=O)OCC`, the TGI in test [1] was 6.76 µM; in [2], 6.11 µM; in test [3], 3.52 µM; in [4] it was 12.1 µM; in test [5] it was 3.17 µM; in [6] it was 3.35 µM. Also, the TGI in test [7] was > 100 µM; in test [8], 4.71 µM; in test [9], 55.2 µM.
`O=C(NC1CCN(Cc2ccccc2)CC1)c1cc2nc(-c3ccc(Cl)s3)cc(C(F)(F)F)n2n1`: the GI50 in [5] is > 100 µM; in [6], > 100 µM; in test [7] it was 3.29 µM; in test [8] it was > 100 µM. The TGI in test [5], in test [6], in [7] and in test [8] was > 100 µM in each case.
For the molecule `Cc1ccc(N2CCc3c(C)c(C#N)c4nc5ccccc5n4c32)cc1`, the TGI in [1], in [2], in [3], in test [4], in test [5] and in test [6] was > 100 µM in each case. For the same molecule, the TGI in [8] and in test [9] was > 100 µM each time.
